Results on 20 compounds are retold here after patent publication US20130345215A1, “PYRAZOLOPYRIMIDONE AND PYRAZOLOPYRIDONE INHIBITORS OF TANKYRASE” (Genentech, Inc., priority 2012, published 2013).

Structures are written as SMILES.

One experiment concerns the target T1, Tankyrase 1 (TNKS1) (Homo sapiens, UniProt O95271).
T1 construct: His6-TNKS1, MW=28.2 KDa (construct: 1088-1327, 1266M)
Nature of the experiment: μHTS-TNKS-IWR2 TR-FRET Binding Assay (Example 118), His6-TNKS1. On the procedure:
(§1) μHTS-TNKS-IWR2 TR-FRET Binding Assay (10 μL/well in BD1536-well plate, a single point)
(§2) Reagents and Stock Solutions
(§3) Biotin-4-((1S,2R,6S,7R)-3,5-Dioxo-4-aza-tricyclo[5.2.1.0*2,6]dec-8-en-4-yl)-N-(4-methyl-quinolin-8-yl)-benzamide (Biotin-IWR2): 10 mM Biotin-IWR2 stock in DMSO, stored at −20° C.
(XAV939) in DMSO, stored at −20° C.
(§4) Assay buffer 1a (AB1a) for TNKS dilution: 50 mM Tris, pH 7.4, 100 mM sodium chloride solution, 1 mM magnesium chloride solution, 1 mM DL-dithiothreitol solution, 0.2 mg/mL bovine serum albumin solution, 0.025% NP-40.
(§5) Assay buffer 1b (AB1b) for Biotin-IWR2 dilution: 50 mM Tris, pH 7.4, 100 mM sodium chloride solution, 1 mM magnesium chloride solution, 1 mM DL-dithiothreitol solution, 0.2 mg/mL bovine serum albumin solution, 0.05% NP-40
(§6) Assay buffer 1c (AB1c) for compound dilution: 50 mM Tris, pH 7.4, 100 mM sodium chloride solution, 1 mM magnesium chloride solution, 1 mM DL-dithiothreitol solution, 0.2 mg/mL bovine serum albumin solution
(§7) Assay buffer 2 (AB2) for Eu/APC: 50 mM Tris, pH 7.4, 100 mM sodium chloride solution, 1 mM magnesium chloride solution, 0.2 mg/mL bovine serum albumin solution
(§8) Reagent Stock Solution Preparation
(§9) Prepare BLANK well stock solution: 5% DMSO/AB1b buffer
(§10) Prepare TNKS 1 stock solution (5× stock): 300 nM TNKS in AB1a buffer. (Alternatively, use TNKS2 or PARP1 stock solutions.)
Transfer 3 μL/well of above solution (solution 1,2,3) to an empty assay plate (BD1536-well plate) as follows: • TOTAL and cpd wells: Solution 1 (Biotin-IWR2): • BLANK wells: Solution 2 (No Biotin-IWR2): • POSITIVE CONTROL wells: Solution 3 (Biotin-IWR2+XAV939)
(§11) Transfer 3 μL/well of the above diluted compound solutions or compound dilution buffer to the above assay plate. Add 2 μL/well of 300 nM TNKS stock solution (4) to every well in the above assay plate. Centrifuge the assay plate at 2100 rpm for 2 min. Incubate the assay plate at 26° C. for 30 minutes. Add 2 μL/well 3.5 nMEu/50 nM APC solution (5) to every well in the above assay plate. Centrifuge the assay plate at 2100 rpm for 2 min. Incubate the assay plate at 26° C. for 60 min.
On the technique in general: Time-resolved FRET reads energy transfer from a long-lived donor to a nearby acceptor.

The next experiment addresses T2, tankyrase 2 (TNKS2) (Homo sapiens, UniProt Q9H2K2).
T2 construct: His6-tankyrase 2 (construct: 934-1166) (His6-TNKS2)
Nature of the experiment: μHTS-TNKS-IWR2 TR-FRET Binding Assay (Example 118), His6-TNKS2 substituted. The settings on record: procedure in Example 118 with His6-TNKS2. The protocol: as §1, §2
Tankyrase 1 (TNKS1): 184.3 μM=5.2 mg/mL His6-TNKS1, MW=28.2 KDa (construct: 1088-1327, 1266M) in 20 mM Tris pH 8, 150 mM NaCl, 10% glycerol, and 0.5 mM TCEP. Alternatively, His6-tankyrase 2 (construct: 934-1166) (His6-TNKS2) or His6-PARP1 (full length) can be substituted for His6-TNKS 1.
as §3
Positive control: 10 mM 2-(4-Trifluoromethyl-phenyl)-3,5,7,8-tetrahydro-thiopyrano[4,3-d]pyrimidin-4-one (XAV939) in DMSO, stored at −20° C.
APC-anti-His Ab: 8.50 μM SL-APC, 8.26 μM anti-6His antibody-SureLight APC (Columia Bioscience, Catalog Number D3-1711, Lot Number N01010-AAH04)
Assay plate: BD 1536-well, clear/black plate (Catalog Number 353255)
as §4, §5, §6, §7, §8
Prepare Biotinylated IWR2 stock solution (3.33× stock) for TOTL and compound wells: 200 nM Biotin-IWR2 in 5% DMSO/AB1b buffer
as §9
Prepare POSITIVE CONTROL well stock solution (3.33× stock): 200 nM XAV939 in 200 nM Biotin-IWR2/5% DMSO/AB1b buffer
as §10
Prepare Eu/APC stock solution (5× stock): 3.5 nM Eu-SA/50 nM APC-His6Ab in AB2 buffer.
Add 25 μL/well 1.5% DMSO/AB1c buffer in each compound well to the compound concentration at 74 μM in 8.8% DMSO/AB1c buffer or in the 2 μL DMSO CONTROL wells (BLANK, TOTAL and POSITIVE wells) in the compound plate. Transfer 3 μL/well of above solution (solution 1,2,3) to an empty assay plate (BD1536-well plate) as follows: • TOTAL and cpd wells: Solution 1 (Biotin-IWR2): • BLANK wells: Solution 2 (No Biotin-IWR2): • POSITIVE CONTROL wells: Solution 3 (Biotin-IWR2+XAV939)
as §11, with “60 min. Read the assay plate immediately at excitation wavelength of 330 nm and emission wavelength of […] in time resolved fluorescence mode.” for “60 min.”
XAV939 (+ve control): 60 nM at ˜70% Inhibition
General Library compounds: 22.23 μM in 4% DMSO

T2 sequence (Q9H2K2 934-1166): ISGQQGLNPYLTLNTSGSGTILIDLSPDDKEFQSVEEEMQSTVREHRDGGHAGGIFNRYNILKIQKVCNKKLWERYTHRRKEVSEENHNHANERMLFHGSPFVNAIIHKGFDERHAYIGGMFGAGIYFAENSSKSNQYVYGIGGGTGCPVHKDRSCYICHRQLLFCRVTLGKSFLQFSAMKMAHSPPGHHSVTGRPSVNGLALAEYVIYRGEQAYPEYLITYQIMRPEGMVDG
T1 sequence (O95271 1088-1327): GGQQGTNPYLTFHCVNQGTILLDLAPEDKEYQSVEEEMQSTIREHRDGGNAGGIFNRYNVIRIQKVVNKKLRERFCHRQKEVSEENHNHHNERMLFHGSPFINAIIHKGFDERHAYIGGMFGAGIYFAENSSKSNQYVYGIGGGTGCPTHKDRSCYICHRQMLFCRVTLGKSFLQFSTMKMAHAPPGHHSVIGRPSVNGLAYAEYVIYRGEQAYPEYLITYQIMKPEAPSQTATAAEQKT

`Cn1ncc2c(=O)[nH]c(N3CCN(c4ccc(S(C)(=O)=O)cc4F)CC3)nc21` [Compound I-21, 6-[4-(2-fluoro-4-methylsulfonyl-phenyl)piperazin-1-yl]-1-methyl-5H-pyrazolo[3 4-d]pyrimidin-4-one]: the IC50 was 0.055 µM at Tankyrase 1 (TNKS1) and 0.0815 µM on tankyrase 2 (TNKS2).

Turning to `Cn1ncc2c(=O)[nH]c(N3CCN(c4ccc(F)cc4S(C)(=O)=O)CC3)nc21` [Compound I-22, 6-[4-(4-fluoro-2-methylsulfonyl-phenyl)piperazin-1-yl]-1-methyl-5H-pyrazolo[3 4-d]pyrimidin-4-one], the values for the IC50 at Tankyrase 1 (TNKS1) and at tankyrase 2 (TNKS2) were 0.044 µM and 0.055 µM, respectively.

In the case of `Cn1ncc2c(=O)[nH]c(N3CCC(O)(c4ccccc4)CC3)nc21` [Compound I-23, 6-(4-hydroxy-4-phenyl-1-piperidyl)-1-methyl-5H-pyrazolo[3 4-d]pyrimidin-4-one], the figures for the IC50 on Tankyrase 1 (TNKS1) and at tankyrase 2 (TNKS2) were 0.057 µM and 0.0668 µM, respectively.

For the compound `Cn1ncc2c(=O)[nH]c(N3CCC(C#N)(c4ccccc4)CC3)nc21` [Compound I-24, 1-(1-methyl-4-oxo-5H-pyrazolo[3 4-d]pyrimidin-6-yl)-4-phenyl-piperidine-4-carbonitrile], the results for the concentration for half-maximal inhibition (IC50) at Tankyrase 1 (TNKS1) and on tankyrase 2 (TNKS2) were 0.027 µM and 0.0333 µM, respectively.

Regarding `Cn1ncc2c(=O)[nH]c(N3CCN(c4ccc(F)cc4S(C)(=O)=O)CC3)cc21` [Compound I-25, 6-[4-(4-fluoro-2-methylsulfonyl-phenyl)piperazin-1-yl]-1-methyl-5H-pyrazolo[4 3-c]pyridin-4-one], the IC50 at Tankyrase 1 (TNKS1) came to 0.044 µM; at tankyrase 2 (TNKS2), 0.0451 µM.

As for `Cn1ncc2c(=O)[nH]c(N3CCN(c4ncccc4C(F)(F)F)CC3)cc21` [Compound I-26, 1-methyl-6-[4-[3-(trifluoromethyl)-2-pyridyl]piperazin-1-yl]-5H-pyrazolo[4 3-c]pyridin-4-one], the 50% inhibitory concentration (IC50) at Tankyrase 1 (TNKS1) amounted to 0.029 µM; at tankyrase 2 (TNKS2), 0.0304 µM.

As to `Cn1ncc2c(=O)[nH]c(-c3ccc(C(F)(F)F)nc3)nc21` [Compound I-27, 1-methyl-6-[6-(trifluoromethyl)-3-pyridyl)-5H-pyrazolo[3 4-d]pyrimidin-4-one], the IC50 came to 0.385 µM on Tankyrase 1 (TNKS1) and 0.428 µM at tankyrase 2 (TNKS2).

Regarding `Cn1ncc2c(=O)[nH]c(N3CCN(c4ccc(C#N)cc4F)CC3)nc21` [Compound I-28, 3-fluoro-4-[4-(1-methyl-4-oxo-5H-pyrazolo[3 4-d]pyrimidin-6-yl)piperazin-1-yl]benzonitrile], the values for the IC50 at Tankyrase 1 (TNKS1) and on tankyrase 2 (TNKS2) were 0.051 µM and 0.0765 µM, respectively.

With `Cn1ncc2c(=O)[nH]c(-c3ccc(C(F)(F)F)nc3)cc21` [Compound I-29, 1-methyl-6-[6-(trifluoromethyl)-3-pyridyl]-5H-pyrazolo[4 3-c]pyridin-4-one], the IC50 at Tankyrase 1 (TNKS1) stood at 0.151 µM; on tankyrase 2 (TNKS2), 0.104 µM.

For `COCCOc1ccc(N2CCN(c3nc4c(cnn4C)c(=O)[nH]3)CC2)c(F)c1` [Compound I-30, 6-[4-[2-fluoro-4-(2-methoxyethoxy)phenyl]piperazin-1-yl]-1-methyl-5H-pyrazolo[3 4-d]pyrimidin-4-one], the IC50 on Tankyrase 1 (TNKS1) was found to be 0.013 µM; on tankyrase 2 (TNKS2), 0.234 µM.

As to `Cn1ncc2c(=O)[nH]c(N3CCN(c4ccc(-c5nnn[nH]5)cc4F)CC3)nc21` [Compound I-31, 6-[4-[2-fluoro-4-(1H-tetrazol-5-yl)phenyl]piperazin-1-yl]-1-methyl-5H-pyrazolo[3 4-d]pyrimidin-4-one], the IC50 on Tankyrase 1 (TNKS1) amounted to 0.026 µM; on tankyrase 2 (TNKS2), 0.0246 µM.

As to `Cn1ncc2c(=O)[nH]c(N3CCN(CC4CCCO4)CC3)nc21` (stereo not shown) [Compound I-32, 1-methyl-6-[4-(tetrahydrofuran-2-ylmethyl)piperazin-1-yl]-5H-pyrazolo[3 4-d]pyrimidin-4-one], the values for the IC50 on Tankyrase 1 (TNKS1) and on tankyrase 2 (TNKS2) were 0.155 µM and 0.178 µM, respectively.

For the compound `Cn1ncc2c(=O)[nH]c(N3CCC(C#N)(c4ccc(F)cc4)CC3)nc21` [Compound I-33, 4-(4-fluorophenyl)-1-(1-methyl-4-oxo-5H-pyrazolo[3 4-d]pyrimidin-6-yl)piperidine-4-carbonitrile], the concentration for half-maximal inhibition (IC50) was 0.032 µM on Tankyrase 1 (TNKS1) and 0.0217 µM at tankyrase 2 (TNKS2).

As for `Cn1ncc2c(=O)[nH]c(N3CCN(c4c(Cl)cncc4Cl)CC3)nc21` [Compound I-34, 6-[4-(3 5-dichloro-4-pyridyl)piperazin-1-yl]-1-methyl-5H-pyrazolo[3 4-d]pyrimidin-4-one], the IC50 is 0.029 µM at Tankyrase 1 (TNKS1) and 0.0289 µM at tankyrase 2 (TNKS2).

On to `Cn1ncc2c(=O)[nH]c(N3CCC(O)(c4ccccn4)CC3)nc21` [Compound I-35, 6-[4-hydroxy-4-(2-pyridyl)-1-piperidyl)-1-methyl-5H-pyrazolo[3 4-d]pyrimidin-1-one], for which the half-inhibitory concentration (IC50) at Tankyrase 1 (TNKS1) was 0.069 µM; at tankyrase 2 (TNKS2), 0.0945 µM.

Regarding `Cn1ncc2c(=O)[nH]c(N3CCN(C4CCS(=O)(=O)C4)CC3)nc21` (stereo not shown) [Compound I-36, 6-[4-(1 1-dioxothiolan-3-yl)piperazin-1-yl]-1-methyl-5H-pyrazolo[3 4-d]pyrimidin-4-one], the concentration for half-maximal inhibition (IC50) at Tankyrase 1 (TNKS1) is 1.93 µM; on tankyrase 2 (TNKS2), 1.6 µM.

Regarding `Cn1ncc2c(=O)[nH]c(N3CCN(C4CCCC4)CC3)nc21` [Compound I-37, 6-(4-cyclopentylpiperazin-1-yl)-1-methyl-5H-pyrazolo[3 4-d]pyrimidin-4-one], the IC50 on Tankyrase 1 (TNKS1) turned out to be 0.165 µM; on tankyrase 2 (TNKS2), 0.178 µM.

For the compound `Cn1ncc2c(=O)[nH]c(N3CCN(c4nccs4)CC3)nc21` [Compound I-38, 1-methyl-6-(4-thiazol-2-ylpiperazin-1-yl)-5H-pyrazolo[3 4-d]pyrimidin-4-one], the figures for the concentration for half-maximal inhibition (IC50) on Tankyrase 1 (TNKS1) and at tankyrase 2 (TNKS2) were 0.504 µM and 0.598 µM, respectively.

`Cn1ncc2c(=O)[nH]c(N3CCN(c4ccc(F)c(C(F)(F)F)c4)CC3)nc21` [Compound I-39, 6-[4-(4-fluoro-3-(trifluoromethyl)phenyl]piperazin-1-yl]-1-methyl-5H-pyrazolo[3 4-d]pyrimidin-4-one]: the IC50 on Tankyrase 1 (TNKS1) came to 0.331 µM; on tankyrase 2 (TNKS2), 0.303 µM.

Regarding `Cn1ncc2c(=O)[nH]c(N3CCN(c4ccc(C(=O)O)cc4F)CC3)nc21` [Compound I-40, 3-fluoro-4-[4-(1-methyl-4-oxo-5H-pyrazolo[3 4-d]pyrimidin-6-yl)piperazin-1-yl]benzoic acid], the values for the IC50 on Tankyrase 1 (TNKS1) and on tankyrase 2 (TNKS2) were 0.041 µM and 0.0394 µM, respectively.

By IC50 is commonly meant the concentration that gives 50% inhibition. Higher therefore signals lower potency.
